Measurements from patent US6960614B2, “Oxygenated esters of 4-lodo phenylamino benzhydroxamic acids” (Warner-Lambert Company, priority 2000, dated 2005).

Tested on: MEK
Assay: Cellular Assay for Measuring MEK Inhibition (inhibition of ERK phosphorylation in C26 cells, Western blot)
Type: cell-based, murine
Details: for % Inhibition @ 0.1 μM / % Inhibition @ 1 μM / % Inhibition @ 10 μM: ERK phosphorylation in C26 cells; for IC50: inhibition of ERK phosphorylation in murine colon 26 (C26) carcinoma cells, determined graphically from dose response curve
Method in brief: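 Exponentially growing murine colon 26 (C26) carcinoma cells treated with varying compound concentrations at 37° C, then lysed. Western blot with antibody to dually phosphorylated ERK1/ERK2; blots stripped and re-probed for total ERK1/ERK2.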

SMILES	% Inhibition @ 0.1 μM	% Inhibition @ 1 μM	% Inhibition @ 10 μM	IC50
CC(C)(O)CONC(=O)c1ccc(F)c(F)c1Nc1ccc(I)cc1F [Example 177, 3,4-Difluoro-2-(2-fluoro-4-iodo-phenylamino)-N-(2-hydroxy-2-methyl-propoxy)-benzamide]	91.6%	95.7%	–	–
CC(C)(O)CONC(=O)c1cc(Br)c(F)c(F)c1Nc1ccc(I)cc1F [Example 178, 5-Bromo-3,4-difluoro-2-(2-fluoro-4-iodo-phenylamino)-N-(2-hydroxy-2-methyl-propoxy)-benzamide]	61.8%	94.9%	–	–
CC(C)(O)CONC(=O)c1cc(Cl)c(F)c(F)c1Nc1ccc(I)cc1F [Example 179, 5-Chloro-3,4-difluoro-2-(2-fluoro-4-iodo-phenylamino)-N-(2-hydroxy-2-methyl-propoxy)-benzamide]	90.4%	99.3%	–	–
CC(C)(O)CONC(=O)c1cc(Cl)c(F)c(F)c1Nc1ccc(F)cc1F [Example 180, 5-Chloro-2-(2,4-difluoro-phenylamino)-3,4-difluoro-N-(2-hydroxy-2-methyl-propoxy)-benzamide]	–	34%	58.6%	–
CC(C)(O)CONC(=O)c1ccc(F)c(F)c1Nc1ccc(F)cc1F [Example 181, 2-(2,4-Difluoro-phenylamino)-3,4-difluoro-N-(2-hydroxy-2-methyl-propoxy)-benzamide]	–	0%	65.1%	–
CC(C)(O)CONC(=O)c1ccc(F)c(F)c1Nc1ccc(Br)cc1F [Example 182, 2-(4-Bromo-2-fluoro-phenylamino)-3,4-difluoro-N-(2-hydroxy-2-methyl-propoxy)-benzamide]	13.1%	81.9%	–	–
O=C(NOCC(O)COc1ccccc1)c1ccc(F)c(F)c1Nc1ccc(I)cc1Cl (centres unmarked) [Example 183]	–	–	–	53 nM
O=C(NOCC(O)COc1ccccc1)c1cc(F)c(F)c(F)c1Nc1ccc(I)cc1Cl (centres unmarked) [Example 184, 2-(2-Chloro-4-iodo-phenylamino)-3,4,5-trifluoro-N-(2-hydroxy-3-phenoxy-propoxy)-benzamide]	16.1%	82.5%	–	–
Cc1cc(I)ccc1Nc1c(C(=O)NOCC(O)COc2ccccc2)cc(F)c(F)c1F (centres unmarked) [Example 185, 3,4,5-Trifluoro-N-(2-hydroxy-3-phenoxy-propoxy)-2-(4-iodo-2-methyl-phenylamino)-benzamide]	6.2%	71.9%	–	–
O=C(NOCC(O)COc1ccccc1)c1cc(Br)c(F)c(F)c1Nc1ccc(I)cc1Cl (centres unmarked) [Example 186, 5-Bromo-2-(2-chloro-4-iodo-phenylamino)-3,4-difluoro-N-(2-hydroxy-3-phenoxy-propoxy)-benzamide]	–	–	–	34 nM
Cc1cc(I)ccc1Nc1c(C(=O)NOCC(O)COc2ccccc2)cc(Br)c(F)c1F (centres unmarked) [Example 187, 5-Bromo-3,4-difluoro-N-(2-hydroxy-3-phenoxy-propoxy)-2-(4-iodo-2-methyl-phenylamino)-benzamide]	13.8%	83.3%	–	–
Cc1cc(I)ccc1Nc1c(C(=O)NOCC(O)COc2ccccc2)ccc(F)c1F (centres unmarked) [Example 188, 3,4-Difluoro-N-(2-hydroxy-3-phenoxy-propoxy)-2-(4-iodo-2-methyl-phenylamino)-benzamide]	–	–	–	44 nM
Cc1cc(I)ccc1Nc1c(C(=O)NOCC(O)COc2ccccc2)cc(Cl)c(F)c1F (centres unmarked) [Example 190, 5-Chloro-3,4-difluoro-N-(2-hydroxy-3-phenoxy-propoxy)-2-(4-iodo-2-methyl-phenylamino)-benzamide]	51.5%	94.6%	–	–
O=C(NOCC(O)COc1ccccc1)c1ccc(F)c(F)c1Nc1ccc(I)cc1F (centres unmarked) [Example 191, 3,4-Difluoro-2-(2-fluoro-4-iodo-phenylamino)-N-(2-hydroxy-3-phenoxy-propoxy)-benzamide]	–	–	–	6 nM
O=C(NOCC(O)COc1ccccc1)c1cc(Cl)c(F)c(F)c1Nc1ccc(I)cc1F (centres unmarked) [Example 192, 5-Chloro-3,4-difluoro-2-(2-fluoro-4-iodo-phenylamino)-N-(2-hydroxy-3-phenoxy-propoxy)-benzamide]	–	–	–	7 nM
O=C(NOCC(O)COc1ccccc1)c1cc(F)c(F)cc1Nc1ccc(I)cc1F (centres unmarked) [Example 193, 4,5-Difluoro-2-(2-fluoro-4-iodo-phenylamino)-N-(2-hydroxy-3-phenoxy-propoxy)-benzamide]	–	–	–	10 nM
O=C(NOCC(O)COc1ccccc1)c1cc(Cl)c(F)c(F)c1Nc1ccc(F)cc1F (centres unmarked) [Example 194, 5-Chloro-2-(2,4-difluoro-phenylamino)-3,4-difluoro-N-(2-hydroxy-3-phenoxy-propoxy)-benzamide]	0%	0%	–	–
O=C(NOCC(O)COc1ccccc1)c1ccc(F)c(F)c1Nc1ccc(F)cc1F (centres unmarked) [Example 195, 2-(2,4-Difluoro-phenylamino)-3,4-difluoro-N-(2-hydroxy-3-phenoxy-propoxy)-benzamide]	–	26.7%	82.6%	–
O=C(NOCC(O)COc1ccccc1)c1ccc(F)c(F)c1Nc1ccc(Cl)cc1F (centres unmarked) [Example 196, 2-(4-Chloro-2-fluoro-phenylamino)-3,4-difluoro-N-(2-hydroxy-3-phenoxy-propoxy)-benzamide]	10.2%	82.8%	–	–
Cc1cc(I)ccc1Nc1c(C(=O)NOCC(C)(C)CO)ccc(F)c1F [Example 197, 3,4-Difluoro-N-(3-hydroxy-2,2-dimethyl-propoxy)-2-(4-iodo-2-methyl-phenylamino)-benzamide]	–	–	–	51 nM
CC(C)(CO)CONC(=O)c1cc(F)c(F)c(F)c1Nc1ccc(I)cc1Cl [Example 198, 2-(2-Chloro-4-iodo-phenylamino)-3,4,5-trifluoro-N-(3-hydroxy-2,2-dimethyl-propoxy)-benzamide]	0%	43.5%	–	–
Cc1cc(I)ccc1Nc1c(C(=O)NOCC(C)(C)CO)cc(F)c(F)c1F [Example 199, 3,4,5-Trifluoro-N-(3-hydroxy-2,2-dimethyl-propoxy)-2-(4-iodo-2-methyl-phenylamino)-benzamide]	–	–	–	100 nM
CC(C)(CO)CONC(=O)c1cc(Cl)c(F)c(F)c1Nc1ccc(I)cc1Cl [Example 200, 5-Chloro-2-(2-chloro-4-iodo-phenylamino)-3,4-difluoro-N-(3-hydroxy-2,2-dimethyl-propoxy)-benzamide]	–	–	–	300 nM
Cc1cc(I)ccc1Nc1c(C(=O)NOCC(C)(C)CO)cc(Cl)c(F)c1F [Example 201, 5-Chloro-3,4-difluoro-N-(3-hydroxy-2,2-dimethyl-propoxy)-2-(4-iodo-2-methyl-phenylamino)-benzamide]	–	–	–	100 nM
